Test results published in patent publication US4487932A, “2,6-Dimethyl-3,5-bis-(1-adamantylhydr oxycarbonyl)-4-(2-difluoromethoxyphenyl)-1,4-dihydropyridine” (Institut Organicheskogo Sinteza Akademii Nauk Latviiskoi, priority 1983, dated 1984).
Entries after “also recorded” stand apart in the source; their conditions may differ. Where two headings read alike, the source gives them in different places.

Tests used:
[1] = tested on: myocardial ischemia (partial occlusion of the coronary artery); assay: rise of ST segment (epicardiac ECG) in partial occlusion of the coronary artery with superposition of a high artificial rhythm; assay type: in vivo, cats and dogs
[2] = tested on: systolic arterial pressure; conditions: for lowering of the systolic arterial pressure: 1 hour after peroral administration; for lowering of the systolic arterial pressure / lowering of the arterial pressure: present compound 10 mg/kg; for lowering of the arterial pressure: in 5 hours after peroral administration
[3] = tested on: white mice; assay: in vivo
Description: (§1) The studies of acute toxicity established the present compound to be low-toxic.
(§2) Acute toxicity of investigated compounds for
(§3) white mice upon intraperitoneal administration

[4] = tested on: arterial pressure; assay: arterial pressure in rats of the line SHR, daily peroral administration during 10 days; assay type: in vivo
Procedure: The application of the present compound with daily peroral administration to rats of the line SHR in the dose of 20 mg/kg during 10 days causes lowering of the arterial pressure by 30-60 mm Hg during 24 hours. […] After the administration of the present compound was discontinued, the systolic arterial pressure gradually rose and reached the control group value in 3 days.

[5] = tested on: arrhythmia and cardiac arrest caused by calcium chloride; assay: calcium chloride model of arrhythmia in white mice; assay type: in vivo
[6] = stability in storage; assay type: physicochemical; conditions: conventional conditions
[7] = tested on: myocardial ischemia (complete occlusion of the coronary artery); assay: ischemic change in the heart in complete occlusion of the coronary artery; assay type: in vivo, dogs
[8] = tested on: venous blood outflowing from the coronary sinus of the heart; assay: content of oxygen in venous blood outflowing from the coronary sinus; minute volume of the heart; assay type: in vivo, cats; conditions: 0.2 to 3 mg/kg
[9] = solubility; assay type: physicochemical; conditions: ethyl alcohol, chloroform, and other organic solvents and oils
[10] = tested on: aconitic arrhythmia; assay: aconitic model of arrhythmia in albino rats; assay type: in vivo; conditions: peroral and intravenous administration
[11] = in vivo; conditions: mouse, in vivo, ip
Description: as §1, §2, §3

[12] = tested on: arrhythmia caused by barium chloride; assay: barium chloride arrhythmia in rabbits; assay type: in vivo
[13] = tested on: coronary circulation / cardiovascular system; conditions: for Duration: increase of coronary blood flow
Description: The action of 2,6-dimethyl-3,5-bis-(1-adamantylhydroxycarbonyl)-4-(2-difluoromethoxyphenyl)-1,4-dihydropyridine on the cardiovascular system was investigated in experiments with cats, rats, and mice.

[14] = white mice, intraperitoneal, present compound = 1
[15] = preliminary peroral, 2 to 10 mg/kg, barium chloride 4 mg/kg intravenously
[16] = narcotized cats, dose 0.05 mg/kg
[17] = narcotized cats, dose 0.50 mg/kg
[18] = narcotized cats, dose 2.00 mg/kg

## COC(=O)C1=C(C)NC(C)=C(C(=O)OC)C1c1ccccc1[N+](=O)[O-] [Niphedipine, 2,6-dimethyl-4-o-nitrophenyl-3,5-dimethoxycarbonyl-1,4-dihydropyridine, reference compound]
[1]; intravenous, 0.01 to 0.05 mg/kg, partial occlusion + high artificial rhythm
  prevention of the rise of the ST segment: only in an insignificant prevention of the rise of the ST segment
[2]
  lowering of the systolic arterial pressure: 51.7 mm Hg
  lowering of the arterial pressure: 14 mm Hg

## CCN(CC)CCNC(=O)c1ccc(N)cc1 [Novocainamide (procainamide), reference compound]
[3]; mouse, in vivo, ip
  Relative toxicity: 28.9

## COc1ccc(Cc2nccc3cc(OC)c(OC)cc23)cc1OC [Papaverine, reference compound]
[3]; [14]
  Relative toxicity: 92.3

## CC1=C(C(=O)OC23CC4CC(CC(C4)C2)C3)C(c2ccccc2OC(F)F)C(C(=O)OC23CC4CC(CC(C4)C2)C3)=C(C)N1 (stereo not shown) [Present compound, 2,6-dimethyl-3,5-bis-(1-adamantylhydroxycarbonyl)-4-(2-difluoromethoxyphenyl)-1,4-dihydropyridine]
[4]; after daily peroral 20 mg/kg during 10 days
  time for systolic arterial pressure to reach the control group value after discontinuation: 3 days
[4]; daily peroral 20 mg/kg during 10 days
  pulse frequency: No increase of the pulse frequency was observed
[4]; daily peroral 20 mg/kg during 10 days, during 24 hours
  lowering of the arterial pressure: 30-60 mm Hg
[5]; calcium model of arrhythmia
  antiarrhythmic activity compared with novocainamide (procainamide) and quinidine: in smaller doses, and in a more pronounced manner; also recorded: exceeds that of novocainamide (procainamide) and quinidine
[5]; peroral, 1 to 5 mg/kg, calcium chloride intravenous
  prevention of arrhythmia and cardiac arrest: prevents the appearance of arrhythmia and cardiac arrest
[1]; experiments with cats and dogs
  effectiveness by ECG data (epicardium lead) compared with niphedipine and nitroglycerine: more effective than niphedipine and nitroglycerine
[1]; intravenous 0.3 to 2 mg/kg vs nitroglycerine 0.05 mg/kg
  effect compared with nitroglycerine: almost two times more durative and more pronounced than of nitroglycerine
[1]; preliminary intravenous, 0.3 to 2 mg/kg, partial occlusion + high artificial rhythm
  rise of the ST segment on epicardiac leads of the ECG: considerably diminishes, and in some cases even completely precludes a rise of the ST segment
[2]
  lowering of the systolic arterial pressure: 31.5 mm Hg
  lowering of the arterial pressure: 8.6 mm Hg
[2]; peroral 10 mg/kg
  lowering of arterial pressure compared with niphedipine: less pronounced than the action of niphedipine
[6]
  stability in storage: stable when stored under conventional conditions
[7]; complete occlusion and also partial occlusion with high artificial rhythm, cats and dogs
  myocardial ischemia: diminishes myocardial ischemia
[7]; dogs, preliminary administration, 0.5 to 2 mg/kg, complete occlusion
  ischemic change in the heart: considerably diminished the ischemic change in the heart
[8]
  minute volume of the heart: somewhat increases
[8]; cats
  content of oxygen in venous blood outflowing from the coronary sinus: increases the content of oxygen in venous blood; also recorded: increases the content of oxygen in the venous blood
[9]
  solubility: readily soluble in ethyl alcohol, chloroform, and other organic solvents and oils
[10]
  prophylactic and therapeutic activity on aconitic arrhythmia: considerable prophylactic and therapeutic activity; also recorded: prophylactic and therapeutic effect
[11]
  LD50: 8400 mg/kg
[3]; mouse, in vivo, ip
  Relative toxicity: 1
[3]; white mice, intraperitoneal
  LD50: 8400(6885.2-10248) mg/kg
  toxicity relative to niphedipine: 1/44
  toxicity relative to quinidine: 1/53
[12]
  prophylactic and therapeutic effect on barium arrhythmia: prophylactic and therapeutic effect
[12]; [15]
  alleviation of arrhythmia: considerably alleviates arrhythmia
  shortening of arrhythmia: 2-5 times
[13]; 0.005 to 3 mg/kg
  effect on arterial pressure, systemic venous pressure and aortal blood flow: does not cause sharp drop of the arterial pressure, noticeable increase of the systemic venous pressure, or diminution of the aortal blood flow
[13]; 0.05 to 3 mg/kg
  undesirable effects (sharp drop of arterial pressure, diminishing of arterial/aortal blood flow, increase of systemic venous pressure): causing no undesirable effects; also recorded: without causing such undesirable effects as sharp drop of the arterial pressure or pronounced diminishing of the aortal blood flow
[13]; equiactive doses
  duration of action compared with niphedipine: twice as durative
[13]; large doses, intravenous administration
  rising of the systemic venous pressure: does not bring about rising of the systemic venous pressure
[13]; narcotized cats
  coronarodilating action: pronounced coronarodilating action
  coronarodilating activity compared with niphedipine: somewhat inferior to niphedipine in activity
[13]; [16]
  Change of aortal blood flow: +5%
  Increase of space velocity of coronary blood flow: 10%
  Lowering of arterial pressure: 0%
  Duration: 25 min
[13]; [17]
  Change of aortal blood flow: +12%
  Change of systemic venous pressure: -10%
  Increase of space velocity of coronary blood flow: 60%
  Lowering of arterial pressure: 5%
  Duration: 50 min
[13]; [18]
  Change of aortal blood flow: +20%
  Change of systemic venous pressure: +8%
  Increase of space velocity of coronary blood flow: 120%
  Lowering of arterial pressure: 20%
  Duration: 90 min

## C=C[C@H]1C[N@@]2CC[C@H]1C[C@@H]2[C@@H](O)c1ccnc2ccc(OC)cc12 [Quinidine, reference compound]
[3]; [14]
  Relative toxicity: 53.8
